Like-named read-outs stand apart in the source and are kept apart here.
How the values were obtained:
[1] = Biodistribution in AR42J tumor-bearing CB17-SCID mice; type: in vivo; details: mouse; for tissue to tissue ratio at 24 h: both sexes, CB17-SCID, total radioactivity; for tissue to tissue ratio at 24 h / tissue uptake at 24 h: 24 h p.i.; for tissue uptake at 1 h: 1 h p.i.
Procedure: (§1) All animal experiments were conducted in accordance with general animal welfare regulations in Germany (German animal protection act, in the edition of the announcement, dated 18 May 2006, as amended by Article 280 of 19 June 2020, approval no. ROB-55.2-1-2532.Vet_02-18-109 by the General Administration of Upper Bavaria) and the institutional guidelines for the care and use of animals. CB17-SCID mice of both genders and aged 2–12 months (Charles River Laboratories International Inc., Sulzfeld, Germany) were allowed to acclimate at the in-house animal facility for at least one week before inoculation was performed. Tumor xenografts were established as previously reported. Exclusion criteria for animals from an experiment were either weight loss higher than 20%, a tumor size above 1500 mm^3, an ulceration of the tumor, respiratory distress or a change of behavior. None of these criteria applied to any animal from the experiment. Neither randomization nor blinding was applied in the allocation of the experiments. Health status is SPF according to FELASA recommendation.
(§2) Biodistribution studies (n = 4) and µSPECT/CT as well as µPET/CT imaging (using a MILabs VECTor^4 small-animal SPECT/PET/OI/CT device, MILabs, Utrecht, The Netherlands) at 1 and 24 h p.i. were carried out as previously published. For all ^177Lu-labeled compounds, approximately 2–3 MBq (100 pmol)—and for the ^18F-labeled analog, approximately 7 MBq (100 pmol)—were administered. For all competition studies, 2.90 mg/kg (40 nmol) of [^natLu]Lu-DOTA-MGS5 (10^−3 M in phosphate-buffered saline) were co-administered.

[2] = tested on: AR42J tumor-bearing CB17-SCID mice; experiment: as above; type: in vivo; details: 24 h p.i.
Procedure: as §1, §2

[3] = adrenal, 100 pmol, 100 pmol, n = 4, read-out: Adrenal activity
[4] = blood, 100 pmol, 100 pmol, n = 4, read-out: Blood activity
[5] = bone, 100 pmol, 100 pmol, n = 4, read-out: Bone activity
[6] = heart, 100 pmol, 100 pmol, n = 4, read-out: Heart activity
[7] = intestine, 100 pmol, 100 pmol, n = 4, read-out: Intestine activity
[8] = liver, 100 pmol, 100 pmol, n = 4, read-out: Liver activity
[9] = lung, 100 pmol, 100 pmol, n = 4, read-out: Lung activity
[10] = muscle, 100 pmol, 100 pmol, n = 4, read-out: Muscle activity
[11] = 100 pmol co-injected with DOTA-MGS5 (40 nmol), n = 2

Structure (SMILES): CCCC[C@H](NC(=O)[C@H](Cc1c[nH]c2ccccc12)NC(=O)CNC(=O)[C@H](Cc1ccc(O)cc1)NC(=O)[C@H](C)NC(=O)CC[C@@H](NC(=O)CC[C@@H](NC(=O)CC[C@@H](NC(=O)CC[C@@H](NC(=O)CC[C@@H](NC(=O)CC[C@@H](NC(=O)CC[C@@H](NC(=O)CC[C@@H](NC(=O)[C@@H](CNC(=O)c1ccc([Si](F)(C(C)(C)C)C(C)(C)C)cc1)NC(=O)CN1CCN(CC(=O)O)CCN(CC(=O)O)CCN(CC(=O)O)CC1)C(=O)O)C(=O)O)C(=O)O)C(=O)O)C(=O)O)C(=O)O)C(=O)O)C(=O)O)C(=O)N[C@@H](CC(=O)O)C(=O)N[C@@H](Cc1ccccc1)C(N)=O [[^19F]F-[^177Lu]Lu-DOTA-rhCCK-18, metal not drawn]
- tissue to tissue ratio at 24 h ([1]; tumor / adrenal, 100 pmol, n = 4, read-out: Tumor-to-background ratio, Adrenal): 73.3 ± 13.4
- tissue to tissue ratio at 24 h ([1]; tumor / blood, 100 pmol, n = 4, read-out: Tumor-to-background ratio, Blood): 1630 ± 823
- tissue to tissue ratio at 24 h ([1]; tumor / bone, 100 pmol, n = 4, read-out: Tumor-to-background ratio, Bone): 151 ± 48
- tissue to tissue ratio at 24 h ([1]; tumor / heart, 100 pmol, n = 4, read-out: Tumor-to-background ratio, Heart): 312 ± 58
- tissue to tissue ratio at 24 h ([1]; tumor / intestine, 100 pmol, n = 4, read-out: Tumor-to-background ratio, Intestine): 124 ± 30
- tissue to tissue ratio at 24 h ([1]; tumor / kidney, 100 pmol, n = 4, read-out: Tumor-to-background ratio, Kidney): 0.19 ± 0.01
- tissue to tissue ratio at 24 h ([1]; tumor / liver, 100 pmol, n = 4, read-out: Tumor-to-background ratio, Liver): 48.1 ± 6.7
- tissue to tissue ratio at 24 h ([1]; tumor / lung, 100 pmol, n = 4, read-out: Tumor-to-background ratio, Lung): 236 ± 118
- tissue to tissue ratio at 24 h ([1]; tumor / muscle, 100 pmol, n = 4, read-out: Tumor-to-background ratio, Muscle): 650 ± 542
- tissue to tissue ratio at 24 h ([1]; tumor / pancreas, 100 pmol, n = 4, read-out: Tumor-to-background ratio, Pancreas): 78.8 ± 17.5
- tissue to tissue ratio at 24 h ([1]; tumor / spleen, 100 pmol, n = 4, read-out: Tumor-to-background ratio, Spleen): 115 ± 15
- tissue to tissue ratio at 24 h ([1]; tumor / stomach, 100 pmol, n = 4, read-out: Tumor-to-background ratio, Stomach): 6.58 ± 2.77
- tissue uptake at 1 h [1, 3]: 0.52 ± 0.07 %ID/g
- tissue uptake at 24 h [1, 3]: 0.37 ± 0.12 %ID/g
- tissue uptake at 24 h ([1]; adrenal, 100 pmol co-injected with DOTA-MGS5 (40 nmol), n = 2, read-out: Adrenal activity, competition studies): 5.02 ± 4.64 %ID/g
- tissue uptake at 1 h [1, 4]: 2.56 ± 0.6 %ID/g
- tissue uptake at 24 h [1, 4]: 0.02 ± 0.01 %ID/g
- tissue uptake at 24 h ([1]; blood, 100 pmol co-injected with DOTA-MGS5 (40 nmol), n = 2, read-out: Blood activity, competition studies): 0.02 %ID/g
- tissue uptake at 1 h ([1]; blood, heart and lung, 100 pmol, span over the three organs, read-out: Blood, heart and lung levels): 0.9 to 2.6 %ID/g
- tissue uptake at 24 h ([1]; blood, heart and lung, 100 pmol, the three organs, read-out: Blood, heart and lung levels): < 0.2 %ID/g
- tissue uptake at 1 h [1, 5]: 0.48 ± 0.02 %ID/g
- tissue uptake at 24 h [1, 5]: 0.18 ± 0.03 %ID/g
- tissue uptake at 1 h [1, 6]: 0.94 ± 0.02 %ID/g
- tissue uptake at 24 h [1, 6]: 0.08 ± 0.02 %ID/g
- tissue uptake at 24 h ([1]; heart, 100 pmol co-injected with DOTA-MGS5 (40 nmol), n = 2, read-out: Heart activity, competition studies): 0.08 ± 0.01 %ID/g
- tissue uptake at 1 h [1, 7]: 0.61 ± 0.11 %ID/g
- tissue uptake at 24 h [1, 7]: 0.21 ± 0.02 %ID/g
- tissue uptake at 24 h ([1]; intestine, 100 pmol co-injected with DOTA-MGS5 (40 nmol), n = 2, read-out: Intestine activity, competition studies): 0.17 ± 0.06 %ID/g
- tissue uptake at 1 h ([1]; kidney, 100 pmol, 100 pmol, n = 4, read-out: Kidney activity): 97.2 ± 14 %ID/g
- tissue uptake at 24 h ([1]; kidney, 100 pmol co-injected with DOTA-MGS5 (40 nmol), n = 2, read-out: Kidney activity, competition studies): 193 ± 15 %ID/g
- tissue uptake at 1 h [1, 8]: 1.15 ± 0.18 %ID/g
- tissue uptake at 24 h [1, 8]: 0.53 ± 0.07 %ID/g
- tissue uptake at 24 h ([1]; liver, 100 pmol co-injected with DOTA-MGS5 (40 nmol), n = 2, read-out: Liver activity, competition studies): 1.51 ± 0.02 %ID/g
- tissue uptake at 1 h [1, 9]: 2.05 ± 0.2 %ID/g
- tissue uptake at 24 h [1, 9]: 0.18 ± 0.15 %ID/g
- tissue uptake at 24 h ([1]; lung, 100 pmol co-injected with DOTA-MGS5 (40 nmol), n = 2, read-out: Lung activity, competition studies): 0.76 ± 0.17 %ID/g
- tissue uptake at 1 h [1, 10]: 0.38 ± 0.03 %ID/g
- tissue uptake at 24 h [1, 10]: 0.08 ± 0.06 %ID/g
- tissue uptake at 24 h ([1]; muscle, 100 pmol co-injected with DOTA-MGS5 (40 nmol), n = 2, read-out: Muscle activity, competition studies): 0.07 ± 0.04 %ID/g
- tissue uptake at 1 h ([1]; pancreas, 100 pmol, 100 pmol, n = 4, read-out: Pancreas activity): 1.22 ± 0.21 %ID/g
- tissue uptake at 1 h ([1]; spleen, 100 pmol, 100 pmol, n = 4, read-out: Spleen activity): 0.6 ± 0.08 %ID/g
- tissue uptake at 24 h ([1]; spleen, 100 pmol co-injected with DOTA-MGS5 (40 nmol), n = 2, read-out: Spleen activity, competition studies): 0.95 ± 0.14 %ID/g
- tissue uptake at 1 h ([1]; stomach, 100 pmol, 100 pmol, n = 4, read-out: Stomach activity): 4.25 ± 0.45 %ID/g
- tissue uptake at 1 h ([1]; tumor, 100 pmol, 100 pmol, n = 4, AR42J tumor, read-out: Tumor activity): 24.1 ± 4.2 %ID/g
- tissue uptake at 24 h ([1]; tumor, 100 pmol co-injected with DOTA-MGS5 (40 nmol), n = 2, read-out: Tumor activity, competition studies): 1.75 ± 0.26 %ID/g

Structure (SMILES): CCCC[C@H](NC(=O)[C@H](Cc1c[nH]c2ccccc12)NC(=O)CNC(=O)[C@H](Cc1ccc(O)cc1)NC(=O)[C@H](C)NC(=O)CC[C@@H](NC(=O)CC[C@@H](NC(=O)CC[C@@H](NC(=O)CC[C@@H](NC(=O)CC[C@@H](NC(=O)CC[C@@H](NC(=O)CC[C@@H](NC(=O)CC[C@@H](NC(=O)[C@@H](CNC(=O)c1ccc([Si](F)(C(C)(C)C)C(C)(C)C)cc1)NC(=O)CN1CCN(CC(=O)O)CCN(CC(=O)O)CCN(CC(=O)O)CC1)C(=O)O)C(=O)O)C(=O)O)C(=O)O)C(=O)O)C(=O)O)C(=O)O)C(=O)O)C(=O)N[C@@H](CC(=O)O)C(=O)N[C@@H](Cc1ccccc1)C(N)=O [[^19F]F-[^177Lu]Lu-DOTA-rhCCK-18] [metal not drawn]
- fold enhanced kidney values compared to [177Lu]Lu-DOTA-PP-F11N [2]: 40 fold
- fold higher tumor uptake compared to [177Lu]Lu-DOTA-PP-F11N [2]: 13 fold
- Pancreas activity, competition studies [2, 11]: 0.22 ± 0.02 %ID/g
- Stomach activity, competition studies [2, 11]: < 2 %ID/g
- Tumor activity, competition studies [2, 11]: < 2 %ID/g
- Kidney activity ([2]; 100 pmol, n = 4): 134 ± 18 %ID/g
- Pancreas activity ([2]; 100 pmol, n = 4): 0.34 ± 0.09 %ID/g
- Stomach activity ([2]; 100 pmol, n = 4): 4.28 ± 1.05 %ID/g
- Tumor activity ([2]; 100 pmol, n = 4, AR42J tumor): 25.4 ± 4.7 %ID/g
- fold higher tumor uptake compared to (R)-DOTAGA derivative ([2]; b47: versus [177Lu]Lu-(R)-DOTAGA-rhCCK-16): 1.5 fold

From publication PMC10054553, “Development of the First ^18F-Labeled Radiohybrid-Based Minigastrin Derivative with High Target Affinity and Tumor Accumulation by Substitution of the Chelating Moiety” (Pharmaceutics, 2023)
